Target: T1, sEH (Homo sapiens, UniProt P34913)
T1 sequence (P34913 1-555): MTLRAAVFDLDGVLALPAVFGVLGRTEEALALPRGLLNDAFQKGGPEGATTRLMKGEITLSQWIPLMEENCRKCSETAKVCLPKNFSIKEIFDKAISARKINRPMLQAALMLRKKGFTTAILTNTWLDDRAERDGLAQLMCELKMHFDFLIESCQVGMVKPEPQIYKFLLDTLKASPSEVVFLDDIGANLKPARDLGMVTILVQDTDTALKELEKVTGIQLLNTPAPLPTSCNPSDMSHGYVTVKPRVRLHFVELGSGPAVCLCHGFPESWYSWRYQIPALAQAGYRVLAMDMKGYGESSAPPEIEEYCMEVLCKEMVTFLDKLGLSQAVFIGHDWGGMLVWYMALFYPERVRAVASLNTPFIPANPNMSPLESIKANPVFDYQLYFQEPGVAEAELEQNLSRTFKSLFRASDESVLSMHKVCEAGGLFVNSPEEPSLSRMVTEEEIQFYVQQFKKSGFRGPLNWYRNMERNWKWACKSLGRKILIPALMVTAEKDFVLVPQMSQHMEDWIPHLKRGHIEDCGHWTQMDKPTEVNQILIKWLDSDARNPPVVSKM
Assay: sEH inhibition, assay not specified
Assay type: biochemical
Description: Any of a number of standard assays for determining epoxide hydrolase activity can be used to determine inhibition of sEH. For example, suitable assays are described in Gill, et al., Anal Biochem 131:273-282 (1983); and Borhan, et al., Analytical Biochemistry 231:188-200 (1995)). Suitable in vitro assays are described in Zeldin et al., J. Biol. Chem. 268:6402-6407 (1993). Suitable in vivo assays are described in Zeldin et al., Arch Biochem Biophys 330:87-96 (1996). […]
The enzyme also can be detected based on the binding of specific ligands to the catalytic site which either immobilize the enzyme or label it with a probe such as dansyl, fluoracein, luciferase, green fluorescent protein or other reagent. […] The enzyme also can be detected based on the generation of fluorescent products following the hydrolysis of the epoxide. […]

activity as an inhibitor of sEH: particularly high activity
SMILES: CCCCCCCCCCCCNC(=O)NC12CC3CC(CC(C3)C1)C2 [ADU, N-Adamantyl-N′-dodecyl urea]
